Assay results taken from patent US10669272B2, “Substituted naphthyridinone compounds useful as T cell activators” (BRISTOL-MYERS SQUIBB COMPANY, priority 2018, dated 2020).
Read-outs that look alike come from different tables or passages of the source. One block for each compound: values may come before it.

Legend:
human DGKα = target: T1, human DGKα (Homo sapiens, UniProt P23743); experiment: DGKα LIPGLO assay (extruded liposome substrate), in vitro DGK inhibition; assay type: biochemical; conditions: liposome (LIPGLO) assay; read-out: DGKa LIPGLO IC50
T1 construct: TVMV protease cleavage site (C); Hexa-His (C); made in house; host or cells: Sf9 insect cells (baculovirus, Bac-to-Bac)

human DGKζ = target: T2, human DGKζ (Homo sapiens, UniProt Q13574); experiment: DGKζ LIPGLO assay (extruded liposome substrate), in vitro DGK inhibition; assay type: biochemical; conditions: liposome (LIPGLO) assay; read-out: DGKz LIPGLO IC50
T2 construct: TVMV protease cleavage site (C); Hexa-His (C); made in house; host or cells: Sf9 insect cells (baculovirus, Bac-to-Bac)

naïve human CD8 T cells = experiment: Human CD8 T cells IFN-γ assay; assay type: cell-based; conditions: normalized to 3 μM reference compound with anti-CD3 plus anti-CD28 as 100% activation, read-out: HuCD8 INFG Normalized EC50;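 further: Naïve human CD8 T cells stimulated with plate-bound anti-CD3 and soluble anti-CD28, IFN-γ in supernatant quantified by AlphaLISA and converted to pg/mL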

T2 sequence (Q13574 with tags, fused parts or gaps isoform Q13574-4): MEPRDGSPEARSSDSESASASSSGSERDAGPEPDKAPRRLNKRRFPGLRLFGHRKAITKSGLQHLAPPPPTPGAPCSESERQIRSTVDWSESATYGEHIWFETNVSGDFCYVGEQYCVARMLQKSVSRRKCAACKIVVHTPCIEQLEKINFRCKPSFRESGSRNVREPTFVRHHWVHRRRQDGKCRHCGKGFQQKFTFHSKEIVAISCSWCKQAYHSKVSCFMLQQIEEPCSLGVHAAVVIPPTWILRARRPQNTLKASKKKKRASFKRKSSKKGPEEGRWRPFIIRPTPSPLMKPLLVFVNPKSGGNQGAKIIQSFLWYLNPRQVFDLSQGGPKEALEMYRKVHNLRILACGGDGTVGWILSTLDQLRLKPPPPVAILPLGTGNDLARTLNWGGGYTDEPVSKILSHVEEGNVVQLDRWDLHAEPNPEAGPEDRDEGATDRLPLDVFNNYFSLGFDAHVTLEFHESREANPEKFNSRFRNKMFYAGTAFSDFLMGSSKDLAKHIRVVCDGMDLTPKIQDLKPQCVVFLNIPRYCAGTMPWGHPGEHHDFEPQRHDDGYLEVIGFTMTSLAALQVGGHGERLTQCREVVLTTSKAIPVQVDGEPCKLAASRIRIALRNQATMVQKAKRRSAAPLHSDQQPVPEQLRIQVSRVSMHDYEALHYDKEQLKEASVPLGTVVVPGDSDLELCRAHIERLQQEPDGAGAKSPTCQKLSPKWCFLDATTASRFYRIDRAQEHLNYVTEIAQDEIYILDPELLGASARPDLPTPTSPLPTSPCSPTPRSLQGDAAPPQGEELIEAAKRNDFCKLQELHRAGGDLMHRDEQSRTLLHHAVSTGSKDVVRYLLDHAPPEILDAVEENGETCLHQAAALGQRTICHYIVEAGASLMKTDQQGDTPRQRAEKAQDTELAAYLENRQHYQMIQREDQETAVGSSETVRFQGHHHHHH
T1 sequence (P23743 with tags, fused parts or gaps): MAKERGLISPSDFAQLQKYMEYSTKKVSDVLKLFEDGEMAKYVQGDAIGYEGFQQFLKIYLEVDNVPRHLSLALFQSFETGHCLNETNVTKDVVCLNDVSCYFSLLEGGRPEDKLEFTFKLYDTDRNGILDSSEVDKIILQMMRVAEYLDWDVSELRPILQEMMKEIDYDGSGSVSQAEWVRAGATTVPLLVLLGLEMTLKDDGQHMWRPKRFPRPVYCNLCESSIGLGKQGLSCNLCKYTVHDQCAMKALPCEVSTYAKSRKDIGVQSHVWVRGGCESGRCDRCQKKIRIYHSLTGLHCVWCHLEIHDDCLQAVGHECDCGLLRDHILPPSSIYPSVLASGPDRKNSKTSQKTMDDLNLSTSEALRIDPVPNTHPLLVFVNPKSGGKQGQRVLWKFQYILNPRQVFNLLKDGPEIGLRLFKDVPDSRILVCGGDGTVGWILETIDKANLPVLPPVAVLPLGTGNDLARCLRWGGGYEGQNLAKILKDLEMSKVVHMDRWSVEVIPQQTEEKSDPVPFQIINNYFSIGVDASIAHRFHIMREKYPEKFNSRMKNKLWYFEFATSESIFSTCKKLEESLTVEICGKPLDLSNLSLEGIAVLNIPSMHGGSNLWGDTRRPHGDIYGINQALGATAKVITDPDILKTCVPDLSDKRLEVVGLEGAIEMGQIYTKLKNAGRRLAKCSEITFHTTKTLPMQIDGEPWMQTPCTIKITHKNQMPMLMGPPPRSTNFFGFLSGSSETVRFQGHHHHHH

Compound: Cn1c(=O)cc(N2CCN(C(c3ccc(F)cc3)c3ccc(F)cc3)C(C(=O)NC3CC3)C2)c2nc(C#N)ccc21 (single isomer, unassigned) [Example 48, 1-(bis(4-fluorophenyl)methyl)-4-(6-cyano-1-methyl-2-oxo-1,2-dihydro-1,5-naphthyridin-4-yl)-N-cyclopropylpiperazine-2-carboxamide]
IC50 (human DGKα): 240 µM | IC50 (human DGKζ): 20 µM | EC50 (naïve human CD8 T cells): 3.8 µM

Compound: Cn1c(=O)c(C#N)c(N2CCN(C(c3ccc(F)cc3)c3ccc(F)cc3)C(C(=O)O)C2)c2nc(C#N)ccc21 (single isomer, unassigned) [Example 53, 1-(bis(4-fluorophenyl)methyl)-4-(3,6-dicyano-1-methyl-2-oxo-1,2-dihydro-1,5-naphthyridin-4-yl)piperazine-2-carboxylic acid]
IC50 (human DGKα): 140 µM | IC50 (human DGKζ): 94 µM | EC50 (naïve human CD8 T cells; Homo sapiens, T-cell, 20 h): 10 µM

Compound: Cn1c(=O)c(C#N)c(N2CCN(C(c3ccc(F)cc3)c3ccc(F)cc3)C(C(=O)NC3CC3)C2)c2nc(C#N)ccc21 (single isomer, unassigned) [Example 61, 1-(bis(4-fluorophenyl)methyl)-N-cyclopropyl-4-(3,6-dicyano-1-methyl-2-oxo-1,2-dihydro-1,5-naphthyridin-4-yl)piperazine-2-carboxamide]
IC50 (human DGKα): 240 µM | IC50 (human DGKζ): 170 µM | EC50 (naïve human CD8 T cells): 10 µM

Compound: CC(C)OC(=O)C1CN(c2cc(=O)n(C)c3ccc(C#N)nc23)CCN1C(c1ccc(F)cc1)c1ccc(F)cc1 (single isomer, unassigned) [Example 62, Isopropyl 1-(bis(4-fluorophenyl)methyl)-4-(6-cyano-1-methyl-2-oxo-1,2-dihydro-1,5-naphthyridin-4-yl)piperazine-2-carboxylate]
IC50 (human DGKα): 240 µM | IC50 (human DGKζ): 15 µM | EC50 (naïve human CD8 T cells): 1.8 µM

The next compounds have a lower IC50 (human DGKα) than those just listed; values first:

IC50 (human DGKα): 52 µM | IC50 (human DGKζ): 140 µM
Compound: Cn1c(=O)c(C#N)c(N2CCN(C(c3ccc(F)cc3)c3ccc(F)cc3)C(C(N)=O)C2)c2nc(C#N)ccc21 (single isomer, unassigned) [Example 57, 1-(bis (4-fluorophenyl)methyl)-4-(3,6-dicyano-1-methyl-2-oxo-1,2-dihydro-1,5-naphthyridin-4-yl)piperazine-2-carboxamide]
EC50 (naïve human CD8 T cells; Homo sapiens, T-cell, 20 h): 6 µM

IC50 (human DGKα): 48 µM | IC50 (human DGKζ): 0.92 µM
Compound: COC(=O)C1CN(c2cc(=O)n(C)c3ccc(C#N)nc23)CCN1C(c1ccc(F)cc1)c1ccc(F)cc1OC (single isomer, unassigned) [Example 67, Methyl 4-(6-cyano-1-methyl-2-oxo-1,2-dihydro-1,5-naphthyridin-4-yl)-1-((4-fluoro-2-methoxyphenyl)(4-fluorophenyl)methyl)piperazine-2-carboxylate]
EC50 (naïve human CD8 T cells): 0.03 µM

IC50 (human DGKα): 27 µM | IC50 (human DGKζ): 4.4 µM
Compound: COC(=O)C1CN(c2c(F)c(=O)n(C)c3ccc(C#N)nc23)CCN1C(c1ccc(Cl)cc1)c1ccc(Cl)cc1 (single isomer, unassigned) [Example 94, methyl 1-(bis(4-chlorophenyl)methyl)-4-(6-cyano-3-fluoro-1-methyl-2-oxo-1,2-dihydro-1,5-naphthyridin-4-yl)piperazine-2-carboxylate]
EC50 (naïve human CD8 T cells): 0.4 µM

IC50 (human DGKα): 18 µM | IC50 (human DGKζ): 0.25 µM
Compound: COC(=O)C1CN(c2cc(=O)n(C)c3ccc(C#N)nc23)CCN1C(c1ccc(F)cc1)c1ccc(F)cc1OC (single isomer, unassigned) [Example 68, Methyl 4-(6-cyano-1-methyl-2-oxo-1,2-dihydro-1,5-naphthyridin-4-yl)-1-((4-fluoro-2-methoxyphenyl)(4-fluorophenyl)methyl)piperazine-2-carboxylate]
EC50 (naïve human CD8 T cells): 0.011 µM

IC50 (human DGKα): 2.6 µM | IC50 (human DGKζ): 0.76 µM
Compound: COC(=O)C1CN(c2c(F)c(=O)n(C)c3ccc(C#N)nc23)CCN1C(c1ccc(Cl)cc1)c1ccc(Cl)cc1 (single isomer, unassigned) [Example 95, methyl 1-(bis(4-chlorophenyl)methyl)-4-(6-cyano-3-fluoro-1-methyl-2-oxo-1,2-dihydro-1,5-naphthyridin-4-yl)piperazine-2-carboxylate]
EC50 (naïve human CD8 T cells): 0.021 µM
